Data taken from PubChem BioAssay (NCI).
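Grown in 96-well plates, cells were treated for 48 hours with each compound at five concentrations. Insufficient inhibition: endpoint recorded as highest concentration tested. The concentration for 50% growth inhibition is given as GI50. TGI: total growth inhibition.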

Key:
Experiment in all cases: DTP human tumour cell line panel, 48 h
UO-31 renal = system: UO-31 renal
NCI-H460 lung = system: NCI-H460 lung
SNB-19 CNS = system: SNB-19 CNS
NCI/ADR-RES ovarian = system: NCI/ADR-RES ovarian
DU-145 prostate = system: DU-145 prostate
KM12 colon = system: KM12 colon
ACHN renal = system: ACHN renal
HCT-15 colon = system: HCT-15 colon
SF-295 CNS = system: SF-295 CNS
HOP-92 NSCLC = system: HOP-92 NSCLC

SMILES | TGI (UO-31 renal) [µM] | TGI (NCI-H460 lung) [µM] | TGI (SNB-19 CNS) [µM] | TGI (NCI/ADR-RES ovarian) [µM] | TGI (DU-145 prostate) [µM] | TGI (KM12 colon) [µM] | TGI (ACHN renal) [µM] | TGI (HCT-15 colon) [µM] | TGI (SF-295 CNS) [µM] | TGI (HOP-92 NSCLC) [µM] | GI50 (UO-31 renal) [µM] | GI50 (SNB-19 CNS) [µM] | GI50 (DU-145 prostate) [µM] | GI50 (HOP-92 NSCLC) [µM]
S=C(N/N=C\C(=N/NC(=S)N1CCCCC1)c1ccccc1)N1CCCCC1 | 3.39 | 4.86 | 3.84 | 7.87 | 3.02 | 3.98 | 3.11 | 5.1 | 3.91 | 3.88 |  |  |  | 
CC(C)C(CC(=O)OCC(CO)OC(=O)CC(C(C)C)C(C)C)C(C)C (centres undefined) | 30.1 | 26.8 | 28.4 | 27.3 | 28.7 | 32 | 24.3 | 30.7 | 21.1 | 16.9 |  |  |  | 
CCn1c2ccc(C(=O)CCCN3CCCCC3)cc2c2cc(C(=O)CCCN3CCCCC3)ccc21 | 18.6 | 3.12 | 10.6 | 13.1 | 18.2 | 8.76 | 15.8 | 5.45 | 10.7 | 30.3 |  |  |  | 
CC(=O)OCC1OC(n2c(-c3ccccc3)c(N=Nc3ccccc3)c(C)c(C#N)c2=S)C(OC(C)=O)C(OC(C)=O)C1OC(C)=O (centres undefined) | > 100 | > 100 | > 100 | > 100 | > 100 | > 100 | > 100 | > 100 | > 100 | > 100 |  |  |  | 
CCc1c(CNc2ccc(C(=O)NC(CC(=O)O)C(=O)O)cc2)ccc2nc(N)nc(N)c12 (centres undefined) | > 1000 | > 1000 | > 1000 | > 1000 | > 1000 | > 1000 | > 1000 | > 1000 | > 1000 | > 1000 | 0.212 | 0.188 | 0.148 | > 1000
O=P(O)(O)c1ccccc1Oc1ccccc1 | > 100 | > 100 | > 100 | > 100 | > 100 | > 100 | > 100 | > 100 | > 100 | > 100 |  |  |  | 
CC(C)C(=O)C(C)(C)CCc1ccccn1 | > 100 | > 100 | > 100 | > 100 | > 100 | > 100 | > 100 | > 100 | > 100 | > 100 |  |  |  | 
COc1cccc2c1C(=O)c1c(O)c3c(c(O)c1C2=O)C[C@H](O)C[C@@H]3OC1CC(N)C(O)C(C)O1 (some centres undefined) | 19.7 | 13.7 | 15.2 | 62.3 | 11.6 | 10.1 | 3.54 | 58 | 7.35 | 17.6 |  |  |  | 
CCCCSc1nsc(N(C(=O)c2ccccc2)C(=O)c2ccccc2)n1 | 39.5 | 76.9 | > 100 | > 100 | > 100 | > 100 | > 100 | > 100 | > 100 | 75 |  |  |  | 
Cn1c(=O)c(-c2ccccc2)c(O)c2ccccc21 | > 100 | > 100 | > 100 | > 100 | > 100 | > 100 | > 100 | > 100 | > 100 | > 100 |  |  |  | 
O=C(OCCN=c1c2ccccc2ccc2ccccc12)c1ccccc1 | > 100 | > 100 | > 100 | > 100 | > 100 | > 100 | > 100 | > 100 | > 100 | > 100 |  |  |  | 
O=C(/C=C/C(=O)N1CCCC1)N1CCCC1 | > 100 | > 100 | > 100 | > 100 | > 100 | > 100 | > 100 | > 100 | > 100 | > 100 |  |  |  | 
O=C1NC2CCCCC2N=C1CC(=O)c1ccc(Br)cc1 (centres undefined) | > 100 | > 100 | > 100 | > 100 | > 100 | > 100 | > 100 | > 100 | > 100 | 65.8 |  |  |  | 
COc1ccccc1CN=C1Nc2ccncc2S(=O)(=O)N1c1ccccc1 | > 100 | > 100 | > 100 | > 100 | > 100 | > 100 | > 100 | > 100 | > 100 | > 100 |  |  |  | 
CC(C)c1cccc(C(C)C)c1NC(=O)/C(CC(=O)CC(c1ccccc1)c1c(O)c2ccccc2oc1=O)=N/O (centres undefined) | > 100 | > 100 | > 100 | > 100 | > 100 | > 100 | > 100 | > 100 | > 100 | > 100 |  |  |  | 
CCOc1ccc(Nc2nc(N)nc(N)c2N)cc1 | 74.3 | 98 | 93.4 | > 100 | > 100 | 73.5 | > 100 | > 100 | 45.8 | > 100 |  |  |  | 
COc1ccc(/C=c2\s/c(=C3/SC(=S)N(c4ccccc4)C3=O)n(-c3ccccc3)c2=O)cc1 | > 100 | > 100 | > 100 | > 100 | > 100 | > 100 | 28.8 | > 100 | > 100 | > 100 |  |  |  | 
CCC(O)(Cc1ccc(OC)cc1)c1ccc(OC)cc1 (centres undefined) | > 100 | > 100 | > 100 | > 100 | > 100 | > 100 | > 100 | > 100 | > 100 | > 100 |  |  |  | 
